Broadly, the IC50 is the midpoint of a concentration-inhibition curve.

A value given as a limit tells only on which side of the number the result lay.

Test [1] concerns the target T1, IGF-1R (Homo sapiens, UniProt P08069).
T1 construct: expressed in transfected cells
In words: Example B-1: IGF-1R Assay (PC3 cells stimulated with IGF1, AlphaLISA on cell lysates). In kind it is cell-based. The following applies: compound two hours, IGF1 200 ng/mL for 30 min, read-out: IC50, Biological Activity against IGF-1R (Table B1). The gist of the method: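 IC50 from AlphaLISA read-out of lysed PC3 cells, percent inhibition normalized between vehicle and EC80 controls. Before lysis, cells had 2 h serum-free starvation, 2 h exposure to compound in 3× dilution series, and 30 min IGF1 stimulation at final 200 ng/mL.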

Test [2] has as its target T1, IGF-1R. Description: Example B-2: IGF-1R Assay (PathHunter cell lines, EC80 agonist challenge, chemiluminescent detection). Particulars: PathHunter cells, compound 60 minutes at 37° C., EC80 agonist 3 hours; read-out: IC50, Biological Activity against IGF-1R (Table B2). In kind it is cell-based. The gist of the method:
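Read-out is PathHunter chemiluminescence, developed for 1 h at room temperature after a 3 h room-temperature EC80 agonist challenge that followed 60 min compound pre-treatment at 37° C (1% vehicle). IC50 comes from % inhibition normalized to EC80 and vehicle controls.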

T1 sequence (P08069 31-1367): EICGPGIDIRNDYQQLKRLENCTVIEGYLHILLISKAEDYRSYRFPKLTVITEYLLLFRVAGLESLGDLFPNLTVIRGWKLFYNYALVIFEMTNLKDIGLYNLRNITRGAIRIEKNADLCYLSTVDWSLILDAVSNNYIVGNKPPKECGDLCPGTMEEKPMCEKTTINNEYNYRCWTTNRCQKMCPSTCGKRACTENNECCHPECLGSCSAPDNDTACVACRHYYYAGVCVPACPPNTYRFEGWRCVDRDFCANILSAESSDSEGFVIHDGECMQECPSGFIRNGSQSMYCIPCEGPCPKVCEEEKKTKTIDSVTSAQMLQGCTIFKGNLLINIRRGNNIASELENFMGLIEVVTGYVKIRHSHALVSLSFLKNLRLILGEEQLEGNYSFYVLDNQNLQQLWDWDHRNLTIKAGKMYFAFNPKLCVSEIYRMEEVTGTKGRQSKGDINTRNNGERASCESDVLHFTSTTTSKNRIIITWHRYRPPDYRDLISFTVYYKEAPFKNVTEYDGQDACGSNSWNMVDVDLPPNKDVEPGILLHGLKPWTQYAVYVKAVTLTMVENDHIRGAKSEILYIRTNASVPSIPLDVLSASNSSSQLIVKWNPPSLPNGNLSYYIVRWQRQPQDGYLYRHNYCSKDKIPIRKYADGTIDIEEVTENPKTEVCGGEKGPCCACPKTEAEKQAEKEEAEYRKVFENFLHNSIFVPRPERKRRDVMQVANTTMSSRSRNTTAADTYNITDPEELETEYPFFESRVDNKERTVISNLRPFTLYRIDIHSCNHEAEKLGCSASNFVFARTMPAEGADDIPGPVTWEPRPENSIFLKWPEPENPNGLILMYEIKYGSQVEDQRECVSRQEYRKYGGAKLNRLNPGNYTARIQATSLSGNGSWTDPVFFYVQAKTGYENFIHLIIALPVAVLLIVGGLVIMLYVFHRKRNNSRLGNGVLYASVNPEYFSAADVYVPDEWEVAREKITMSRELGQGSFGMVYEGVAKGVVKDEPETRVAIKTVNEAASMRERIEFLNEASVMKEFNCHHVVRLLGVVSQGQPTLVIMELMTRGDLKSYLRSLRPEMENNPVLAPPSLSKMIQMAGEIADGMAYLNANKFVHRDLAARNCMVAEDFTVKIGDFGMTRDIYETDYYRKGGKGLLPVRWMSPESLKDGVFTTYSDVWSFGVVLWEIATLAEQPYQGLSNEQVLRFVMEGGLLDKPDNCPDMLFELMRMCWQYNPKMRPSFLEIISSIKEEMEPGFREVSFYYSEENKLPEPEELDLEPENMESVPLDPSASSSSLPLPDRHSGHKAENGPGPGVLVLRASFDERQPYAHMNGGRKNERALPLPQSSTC

In the case of `C[C@@H](CC#N)Nc1cc(CN2C(=O)N(c3ccc(C4(C(F)(F)F)CC4)cc3)C(=O)C2(C)C)ccn1` [Compound 139, (S)-3-((4-((5,5-dimethyl-2,4-dioxo-3-(4-(1-(trifluoromethyl)cyclopropyl)phenyl)imidazolidin-1-yl)methyl)pyridin-2-yl)amino)butanenitrile], the IC50 on IGF-1R [1] and at IGF-1R [2] was at most 500 nM in each case.

On to `CC1(C)C(=O)N(c2ccc(C3(C#N)CCC3)cc2)C(=O)N1Cc1ccnc(NC2CCOCC2)c1` [Compound 129, 1-(4-(4,4-dimethyl-2,5-dioxo-3-((2-((tetrahydro-2H-pyran-4-yl)amino)pyridin-4-yl)methyl)imidazolidin-1-yl)phenyl)cyclobutane-1-carbonitrile], for which the IC50 at IGF-1R [1] and on IGF-1R [2] was at most 500 nM in each case.

Consider `CC(C)Nc1cc(CN2C(=O)N(c3ccc(C4CC45CC5)cc3)C(=O)C2(C)C)ccn1` (centres unmarked) [Compound 97, 1-((2-(isopropylamino)pyridin-4-yl)methyl)-5,5-dimethyl-3-(4-(spiro[2.2]pentan-1-yl)phenyl)imidazolidine-2,4-dione], for which the IC50 at IGF-1R [1] and on IGF-1R [2] was at most 500 nM in each case.

Consider `CC1(C)C(=O)N(c2ccc(C3(C(F)(F)F)CC3)cc2)C(=O)N1Cc1ccnc(NC2CCS(=O)(=O)C2)c1` (centres unmarked) [Compound 136, 1-((2-((1,1-dioxidotetrahydrothiophen-3-yl)amino)pyridin-4-yl)methyl)-5,5-dimethyl-3-(4-(1-(trifluoromethyl)cyclopropyl)phenyl) imidazolidine-2,4-dione], for which the IC50 at IGF-1R [1] and at IGF-1R [2] was 500 to 2000 nM each time.

With `CC(C)Nc1cc(CN2C(=O)N(c3ccc(C4(C#N)CC(F)(F)C4)cc3)C(=O)C2(C)C)ccn1` [Compound 123, 3,3-difluoro-1-(4-(3-((2-(isopropylamino)pyridin-4-yl)methyl)-4,4-dimethyl-2,5-dioxoimidazolidin-1-yl)phenyl)cyclobutane-1-carbonitrile], the IC50 at IGF-1R [1] and on IGF-1R [2] was 500 to 2000 nM throughout.

As for `CC(C)Nc1cc(CN2C(=O)N(c3ccc4c(c3)N(C)CC43CCC3)C(=O)C2(C)C)ccn1` [Compound 191, 1-((2-(isopropylamino)pyridin-4-yl)methyl)-5,5-dimethyl-3-(1′-methylspiro[cyclobutane-1,3′-indolin]-6′-yl)imidazolidine-2,4-dione], the half-maximal inhibitory concentration (IC50) on IGF-1R [1] and on IGF-1R [2] was at most 500 nM throughout.

For the compound `COC[C@@H](C)Nc1cc(CN2C(=O)N(c3ccc(S(=O)(=O)C(F)(F)F)cc3)C(=O)C2(C)C)ccn1` [Compound 318, (R)-1-((2-((1-methoxypropan-2-yl)amino)pyridin-4-yl)methyl)-5,5-dimethyl-3-(4-((trifluoromethyl)sulfonyl)phenyl) imidazolidine-2,4-dione], the IC50 at IGF-1R [1] and on IGF-1R [2] was at most 500 nM each time.

As to `CC(C)Nc1cc(CN2C(=O)N(c3ccc4c(C5CC5)n[nH]c4c3)C(=O)C2(C)C)ccn1` [Compound 258, 3-(3-cyclopropyl-1H-indazol-6-yl)-1-((2-(isopropylamino)pyridin-4-yl)methyl)-5,5-dimethylimidazolidine-2,4-dione], the IC50 on IGF-1R [1] and at IGF-1R [2] was 2000 to 10000 nM each time.

For `CC(C)Nc1cc(CN2C(=O)N(c3ccc(C(C)(C)C)cn3)C(=O)C2(C)C)ccn1` [Compound 277, 3-(5-(tert-butyl)pyridin-2-yl)-1-((2-(isopropylamino)pyridin-4-yl)methyl)-5,5-dimethylimidazolidine-2,4-dione], the IC50 at IGF-1R [1] and on IGF-1R [2] was at most 500 nM in each case.

Take `CC1(C)COCCC1Nc1cc(CN2C(=O)N(c3ccc(C4(C(F)(F)F)CC4)cc3)C(=O)C2(C)C)ccn1` (centres unmarked) [Compound 132, 1-((2-((3,3-dimethyltetrahydro-2H-pyran-4-yl)amino)pyridin-4-yl)methyl)-5,5-dimethyl-3-(4-(1-(trifluoromethyl)cyclopropyl)phenyl) imidazolidine-2,4-dione]: the values for the IC50 at IGF-1R [1] and on IGF-1R [2] were 2000 to 10000 nM and 500 to 2000 nM, respectively.

These data come from US20250145585A1, “HETEROCYCLIC INHIBITORS OF IGF-1R FOR TREATMENT OF DISEASE” (HORIZON THERAPEUTICS IRELAND DAC, priority 2023, published 2025).
